Test results taken from patent US11767520B2, “Compositions and methods for treating lung inflammation” (aTyr Pharma, Inc., priority 2017, dated 2023).

Tests used:
[1] = Body weight, BLM mouse model (Example 1); format: in vivo, mouse (male C57Bl/6J); conditions: BLM-induced mice; daily PO from Day 0: dexamethasone 0.25 mg/kg, Nintedanib 60 mg/kg
Method: (§1) Lung inflammation and fibrosis were induced in male C57Bl/6J mice by oropharyngeal administration of BLM. After the habituation phase mice were randomized based on body weight over the different groups. Under isoflurane anesthesia, 50 μl PBS or BLM was dripped onto the vocal cords facilitating aspiration. Mice were sacrificed at day 21 using a terminal bleed under isoflurane anesthesia.
(§2) Daily oral treatments commenced on Day 0, while daily IV treatments commenced on Day 8. Dosing was planned to continue until the day of termination (Day 21), however, due to high mortality in IV treated groups (see results), IV dosing was skipped on Day 19 and Day 20. […] Subsequently, the mice received 8% D20 (Kinemed, Emeryville) drinking water until sacrifice to maintain labeling of newly formed collagen. Body weight was monitored three times a week.

[2] = tested on: bleomycin-induced lung inflammation and fibrosis; assay: Cell counts in BAL fluid, BLM mouse model (Example 1); format: in vivo, mouse (male C57Bl/6J); conditions: BLM-induced mice; daily PO from Day 0: dexamethasone 0.25 mg/kg, Nintedanib 60 mg/kg; vs PO vehicle
Method: as §1, §2
The lungs were flushed two times with 750 μl PBS, combined into one bronchoalveolar lavage (BAL) sample, and stored on ice until centrifugation. The supernatant was collected and stored frozen (<−70° C.). The erythrocytes in the cell pellet were lysed and the remaining cells were resuspended in 100 μl PBS. 20 μl was diluted in trypan blue solution and used for counting the live cells using a hemocytometer.

[3] = tested on: bleomycin-induced lung fibrosis; assay: Histological fibrosis (modified Ashcroft) score, BLM mouse model (Example 1); format: in vivo, mouse (male C57Bl/6J); conditions: BLM-induced mice
Method: The five lung lobes were collected and isolated. Wet weight of the medial and accessory lung lobes was recorded. The lobes were then snap frozen and stored at <−70° C. until use for hydroxyproline analysis. The left lung lobe was inflated and fixed for 48 hours in 4% formaldehyde and embedded in paraffin for histological analysis. The cranial lung lobe was snap frozen and stored at −80° C. until shipment to Kinemed for the determination of new collagen formation.
Sections of the left lung lobe were stained using Masson's Trichrome and were scored in a blinded fashion using a modified Ashcroft score (Hubner et al., BioTechniques. 44:507-511, 514-507, 2008). Hydroxyproline content was determined in the medial and accessory lung lobes using acid hydrolysis followed by a chromogenic assay (QuickZyme Biosciences, Leiden, Netherlands). Newly formed collagen was measured in the cranial lung lobe by Kinemed Inc., Emeryville, USA using the fraction of body water enriched in 2H for normalization.

[4] = tested on: bleomycin-induced lung fibrosis; assay: Histological fibrosis (modified Ashcroft) score, BLM rat model (Example 2); format: in vivo, rat (male Sprague Dawley); conditions: BLM-induced rats
Method: The five lung lobes were collected and weighed. The right lung lobes were inflated and fixed in 10% neutral buffered formalin and embedded in paraffin for histological analysis. An approximately 50 mg piece of the left lung lobe was snap frozen and stored at −80° C. for potential RNA analysis. The remainder of the lobe was also snap frozen until analyzed for collagen content.
(§3) Sections for histology were stained using picrosirius red and were scored in a blinded fashion (1 score for each of the 4 lobes) by a veterinary pathologist using a modified Ashcroft score (Hubner et al., 2008). Hydroxyproline content was determined in the left lung lobe using a mass spectrometry method.
(§4) Slides were read by a veterinary pathologist and each of the 4 lobes evaluated was assigned 4 scores [Ashcroft for fibrosis (scores range from 0 to 8), perivascular/peribronchiolar inflammatory cell infiltrate (scores range from 0 to 5), interstitial/alveolar inflammatory cell infiltrate (scores range from 0 to 5), type II pneumocyte hyperplasia (scores range from 0 to 5)].
Having noted the high variability in mean Ashcroft Index Scores within groups and also in lung pathology within each individual due to the focal nature of the model, we analyzed Ashcroft scores from all fields scored (4 per animal), which increased the number of observations to 24-32 in BLM-induced groups.

[5] = Body weight, BLM rat model, combination study (Example 3); format: in vivo, rat (male Sprague Dawley); conditions: BLM-induced rats; Nintedanib, Pirfenidone or Test Article (HRS^FC1 3 mg/kg IV weekly), alone or in combination, from Day 9
Method: PBS or BLM was administered under isoflurane anesthesia. Excess rats were induced with BLM and used to replace any animals with excessive body weight loss.
All treatments commenced on Day 9.
In-life, body weights were measured and clinical observations were conducted daily. On Days 8, 15 and 21, animals were removed from their home cages and placed individually into whole body plethysmography chambers. After a 20-minute acclimatization phase, respiratory parameters were recorded for 10 minutes. Pre-study and on Days 10 and Day 17, whole blood was obtained from the tail vein and processed to serum for measurement of HRS^FC1.

[6] = tested on: bleomycin-induced lung fibrosis; assay: Histological fibrosis (modified Ashcroft) score, BLM rat model, combination study (Example 3); format: in vivo, rat (male Sprague Dawley); conditions: BLM-induced rats; alone or in combination, vs PO plus IV vehicles; data not shown
Method: (§5) The five lung lobes were collected and weighed. On Day 17, the right accessory lobe was retained and desiccated to obtain dry weight. The remaining right lung lobes were inflated and fixed in 10% neutral buffered formalin and embedded in paraffin for histological analysis. An approximately 50 mg piece of the left lung lobe was snap frozen and stored at −80° C. for potential RNA analysis. The remainder of the lobe was also snap frozen until analyzed for collagen content.
as §3, with “3-4” for “4”
as §4, with “the 3” for “the 4”, “4 score types” for “4 scores”

[7] = tested on: bleomycin-induced lung inflammation; assay: Interstitial/alveolar inflammatory cell infiltrate score, BLM rat model, combination study (Example 3); format: in vivo, rat (male Sprague Dawley); conditions: BLM-induced rats; alone or in combination, vs PO plus IV vehicles; data not shown
Method: as §5
as §3, with “3-4” for “4”
as §4, with “the 3” for “the 4”, “4 score types” for “4 scores”

COC(=O)c1ccc2c(c1)NC(=O)/C2=C(\Nc1ccc(N(C)C(=O)CN2CCN(C)CC2)cc1)c1ccccc1 [Nintedanib, nintedanib]
Body weight, of initial body weights [1]: around 90% | Live cells counted in BAL fluid at termination [2]: did not significantly affect | Group mean histological (Ashcroft) score, significance vs respective vehicle ([3]; left lung lobe, Day 21, dexamethasone/Nintedanib PO, Test Article = HisRS1^N8 IV): did not result in a significant decrease | Overall effects in this experiment ([3]; Nintedanib 60 mg/kg/dose from day of BLM instillation): no significant effects | Decrease of group mean Ashcroft score vs respective vehicle ([4]; Day 22, Nintedanib PO, Test Article = HRS^FC1 1 mg/kg IV on Days 2, 9 and 16, not significant): 5% | Group mean Ashcroft score, significance vs respective vehicle ([4]; Day 22, Nintedanib PO, Test Article = HRS^FC1 IV): did not meet statistical criteria | Overall effects in this experiment ([4]; Nintedanib (50 mg/kg/dose) starting on Day 9, as printed in Summary): no significant effects | Body weight curves vs respective controls [5]: None of the groups treated with Nintedanib, Pirfenidone or Test Article alone or in combination had body weight curves that significantly differed | Interstitial inflammatory cell infiltrate (as printed in the Ashcroft score paragraph) [6]: no significant effect | Interstitial inflammatory cell infiltrate [7]: no significant effect
